From patent publication US11858941B2, “Heterocyclic and heteroaryl compounds for treating Huntington's disease” (PTC THERAPEUTICS, INC., priority 2018, dated 2024)

The compounds below were run on Endogenous Huntingtin Protein (assay: Endogenous Huntingtin Protein Assay (Meso Scale Discovery ELISA-based electrochemiluminescence)). Settings: MSD plates coated with MW1 (expanded polyglutamine) or MAB2166 capture antibody; lysates.
Assay type: cell-based
Outline: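 MSD electrochemiluminescence sandwich ELISA: MW1 (expanded polyQ) or MAB2166 capture antibody at 1 μg/mL, samples incubated overnight at 4° C. Detection with rabbit monoclonal #5656S then SULFO-TAG anti-rabbit antibody, each 0.25 μg/mL for 1 h at room temperature.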
Compound `CC1(C)CC(n2nnc3cc(-c4ccc(-c5c[nH]cn5)cc4O)nnc32)CC(C)(C)N1` [Cpd 115, 5-(1H-imidazol-4-yl)-2-[3-(2,2,6,6-tetramethylpiperidin-4-yl)-3H-[1,2,3]triazolo[4,5-c]pyridazin-6-yl]phenol] has an IC50 of 100 to 500 nM.
`Oc1cc(-c2cn[nH]c2)ccc1-c1cc2scc(C3=CC4CCC(C3)N4)c2nn1` (stereo not shown) [Cpd 18, 2-[7-(8-azabicyclo[3.2.1]oct-2-en-3-yl)thieno[3,2-c]pyridazin-3-yl]-5-(1H-pyrazol-4-yl)phenol] gave an IC50 of no more than 100 nM.
`CC1(C)CC(n2ncc3cc(-c4ccc(-c5c[nH]nc5F)cc4O)nnc32)CC(C)(C)N1` [Cpd 161, 5-(3-fluoro-1H-pyrazol-4-yl)-2-(1-(2,2,6,6-tetramethylpiperidin-4-yl)-1H-pyrazolo[3,4-c]pyridazin-5-yl)phenol] showed an IC50 of no more than 100 nM.
`CCNc1nc2cc(-c3ccc(-c4cn[nH]c4)cc3O)nnc2n1C1CC(C)(C)NC(C)(C)C1` [Cpd 49, 2-[6-(ethylamino)-7-(2,2,6,6-tetramethylpiperidin-4-yl)-7H-imidazo[4,5-c]pyridazin-3-yl]-5-(1H-pyrazol-4-yl)phenol] showed an IC50 of 1000 to 3000 nM.
`Oc1cc(-c2cn[nH]c2)ccc1-c1cc2[nH]cc(C3=CC4COCC(C3)N4)c2nn1` (stereo not shown) [Cpd 28, 2-[7-(3-oxa-9-azabicyclo[3.3.1]non-6-en-7-yl)-5H-pyrrolo[3,2-c]pyridazin-3-yl]-5-(1H-pyrazol-4-yl)phenol] showed an IC50 of 1000 to 3000 nM.
Work on `CC1(C)CC(n2nnc3cc(-c4ccc(-c5ccsc5)cc4O)nnc32)CC(C)(C)N1` [Cpd 89, 2-[3-(2,2,6,6-tetramethylpiperidin-4-yl)-3H-[1,2,3]triazolo[4,5-c]pyridazin-6-yl]-5-(thiophen-3-yl)phenol] yielded an IC50 of 100 to 500 nM.
Work on `CC1(C)C[C@H](n2nnc3cc(-c4ccc(-c5c[nH]nc5F)cc4O)nnc32)[C@H](F)C(C)(C)N1` [Cpd 173, 5-(3-fluoro-1H-pyrazol-4-yl)-2-{3-[(3S,4S)-3-fluoro-2,2,6,6-tetramethylpiperidin-4-yl]-3H-[1,2,3]triazolo[4,5-c]pyridazin-6-yl}phenol] yielded an IC50 of no more than 100 nM.
With `CC1(C)CC(n2c(O)nc3cc(-c4ccc(-c5cn[nH]c5)cc4O)nnc32)CC(C)(C)N1` [Cpd 9, 3-[2-hydroxy-4-(1H-pyrazol-4-yl)phenyl]-7-(2,2,6,6-tetramethylpiperidin-4-yl)-7H-imidazo[4,5-c]pyridazin-6-ol] the IC50 was 1000 to 3000 nM.
`CC1(C)CC(n2nnc3cc(-c4ccc(-c5ccn6cncc6c5)cc4O)nnc32)CC(C)(C)N1` [Cpd 88, 5-(imidazo[1,5-a]pyridin-7-yl)-2-[3-(2,2,6,6-tetramethylpiperidin-4-yl)-3H-[1,2,3]triazolo[4,5-c]pyridazin-6-yl]phenol] gave an IC50 of 100 to 500 nM.
`CC1(C)CC(n2nnc3cc(-c4ccc(-n5cnc(F)c5)cc4O)nnc32)CC(C)(C)N1` [Cpd 143, 5-(4-fluoro-1H-imidazol-1-yl)-2-[3-(2,2,6,6-tetramethylpiperidin-4-yl)-3H-[1,2,3]triazolo[4,5-c]pyridazin-6-yl]phenol] showed an IC50 of no more than 100 nM.
